Tested on: superoxide anion
Experiment: Superoxide anion formation by BAECs (lucigenin chemiluminescence)
Format: cell-based, bovine
Settings: CYP2J2-transfected vs GFP-transfected cells
Protocol: The rate of superoxide anion generation by BAECs was determined as follows: Forty-eight hours after transfection with either pcDNA3.1/GFP or pcDNA3.1/CYP2J2, BAECs were detached by treatment with trypsin and resuspended in culture medium containing 10% FBS. Special care was taken to avoid unnecessary manipulation of the BAECs. The rate of superoxide anion formation in vitro was determined by chemiluminescence of lucigenin (bis-N-methylacridinium nitrate) as described by Yang et al., 274 Am. J. Physiol. H1955-H1961 (1998)). Briefly, culture medium (10% of FBS added) containing 0.25 mmol/L lucigenin (pH 7.4) was prepared as an assay solution. One milliliter of this assay solution was placed in a plastic scintillation vial., and then 2×10^6 BAECs were gently placed in the assay solution. The chemiluminescence of lucigenin was then detected with the use of a scintillation counter (LS 6500, Beckman Instruments, Fullerton, Calif.) in out-of-coincidence mode with a single active photomultiplier tube every 5 min. The chemical specificity of this light-yielding reaction for superoxide anion has been reported previously (Yang et al., 274 Am. J. Physiol. H1955-H1961 (1998)).

Substance: CYP2J2: CYP2J2 cDNA (1.9 kb) subcloned into plasmid pcDNA3.1, transfected into endothelial cells
- rate of superoxide anion formation: significantly lower

Reference: patent US6916843B1, “Anti-inflammatory actions of cytochrome P450 expoxygenase-derived eicosanoids” (The United States of America as represented by the …, priority 1999, dated 2005)
